Results taken from patent US5580871A, “4-Heteroaryl- 1,4-dihydropyridine compounds with calcium agonist and alpha1 -antagonist activity” (The Dupont Merck Pharmaceutical Company, priority 1995, dated 1996).

Legend:
alpha1-adrenoceptor = assay: [3H]-Prazosin binding assay (affinity for alpha1-adrenoceptors); settings: partially purified rat brain membranes; 0.2 nM [3H]-prazosin, 60 min, 25° C.
Method: The [^3 H]-prazosin binding assay was carried out according to the method described by Timmermans, P. B. M. W. M., Schoop, A. M. C., and Van Zwieten, P. A., Biochem. Pharmacol., 31, 899-905, (1982). The reaction mixture contained partially purified rat brain membranes (source of alpha1 -adrenoceptors), 0.2 nM [^3 H]-prazosin with or without potential displacer in Tris buffer. The mixture was incubated for 60 minutes at 25° C. and subsequently terminated by rapid filtration through glass fiber-filter. Receptor-bound [^3 H]-prazosin trapped in the filter was quantitated by scintillation counting. The inhibitory concentration (IC50) of potential displacer which gives 50% displacement of the total specifically bound [^3 H]-prazosin is presented as a measure of the affinity of such compound for the alpha1 -adrenoceptor.

Ca^2+ channel = target: T1, Ca^2+ channel (Rattus norvegicus, UniProt P22002); assay: [3H]-Nitrendipine binding assay (affinity for calcium channels); settings: rat cardiac microsomes; 0.5 nM [3H]-nitrendipine, 60 min, 25° C.
T1 construct: rat cardiac microsomes (source of Ca^2+ channels); from tissue; host or cells: rat cardiac microsomes
Method: [^3 H]-Nitrendipine binding assay was carried out according to the method described by G. T. Bolger, et al., Biochem. Biophys. Res. Comm., 104, 1604-1609, (1982). The reaction mixture contained rat cardiac microsomes (source of Ca^2+ channels), 0.5 nM [^3 H]-nitrendipine with or without potential displacer in Tris buffer. The mixture was incubated for 60 minutes at 25° C. and subsequently terminated by rapid filtration through a glass fiber-filter. Membrane-bound [^3 H]-nitrendipine trapped in the filter was quantitated by scintillation counting. The inhibitory concentration (IC50) of potential displacer which gives 50% displacement of the total specifically bound [^3 H]-nitrendipine is presented as a measure of the affinity of such compound for the Ca^2+ channel.

guinea pig left atria = assay: Positive inotropic effect in guinea pig left atria; settings: Cavia porcellus; for EC50: concentration that increases developed tension (DT) by 50% above the control DT, left atria paced at 2 Hz, 37° C.; for Emax: ratio of the maximum effect of the test compound to that of Bay K8644, read-out: Intrinsic Activity
Method: Guinea pigs are killed by cervical dislocation. The left atria are removed and mounted at 1 gm resting tension in tissue baths containing oxygenated Krebs bicarbonate solution which is kept at 37° C. The left atria are electrically paced at 2 Hz with square wave pulses of 1 msec duration. The voltage is set at 1.5×threshold level.
After a one hour equilibration period, control values for developed tension (DT, gm) are recorded. Test compounds are then added to the baths, in a cumulative manner to a maximum concentration of 10^-4, to obtain a concentration-response curve. Treatment values of DT are obtained after the drug effect has reached a plateau and the exposure time for each concentration is 5-8 minutes. Percent change of the treatment value from the control value is calculated at each concentration of the test compound.

T1 sequence (P22002 whole entry, other chains not shown): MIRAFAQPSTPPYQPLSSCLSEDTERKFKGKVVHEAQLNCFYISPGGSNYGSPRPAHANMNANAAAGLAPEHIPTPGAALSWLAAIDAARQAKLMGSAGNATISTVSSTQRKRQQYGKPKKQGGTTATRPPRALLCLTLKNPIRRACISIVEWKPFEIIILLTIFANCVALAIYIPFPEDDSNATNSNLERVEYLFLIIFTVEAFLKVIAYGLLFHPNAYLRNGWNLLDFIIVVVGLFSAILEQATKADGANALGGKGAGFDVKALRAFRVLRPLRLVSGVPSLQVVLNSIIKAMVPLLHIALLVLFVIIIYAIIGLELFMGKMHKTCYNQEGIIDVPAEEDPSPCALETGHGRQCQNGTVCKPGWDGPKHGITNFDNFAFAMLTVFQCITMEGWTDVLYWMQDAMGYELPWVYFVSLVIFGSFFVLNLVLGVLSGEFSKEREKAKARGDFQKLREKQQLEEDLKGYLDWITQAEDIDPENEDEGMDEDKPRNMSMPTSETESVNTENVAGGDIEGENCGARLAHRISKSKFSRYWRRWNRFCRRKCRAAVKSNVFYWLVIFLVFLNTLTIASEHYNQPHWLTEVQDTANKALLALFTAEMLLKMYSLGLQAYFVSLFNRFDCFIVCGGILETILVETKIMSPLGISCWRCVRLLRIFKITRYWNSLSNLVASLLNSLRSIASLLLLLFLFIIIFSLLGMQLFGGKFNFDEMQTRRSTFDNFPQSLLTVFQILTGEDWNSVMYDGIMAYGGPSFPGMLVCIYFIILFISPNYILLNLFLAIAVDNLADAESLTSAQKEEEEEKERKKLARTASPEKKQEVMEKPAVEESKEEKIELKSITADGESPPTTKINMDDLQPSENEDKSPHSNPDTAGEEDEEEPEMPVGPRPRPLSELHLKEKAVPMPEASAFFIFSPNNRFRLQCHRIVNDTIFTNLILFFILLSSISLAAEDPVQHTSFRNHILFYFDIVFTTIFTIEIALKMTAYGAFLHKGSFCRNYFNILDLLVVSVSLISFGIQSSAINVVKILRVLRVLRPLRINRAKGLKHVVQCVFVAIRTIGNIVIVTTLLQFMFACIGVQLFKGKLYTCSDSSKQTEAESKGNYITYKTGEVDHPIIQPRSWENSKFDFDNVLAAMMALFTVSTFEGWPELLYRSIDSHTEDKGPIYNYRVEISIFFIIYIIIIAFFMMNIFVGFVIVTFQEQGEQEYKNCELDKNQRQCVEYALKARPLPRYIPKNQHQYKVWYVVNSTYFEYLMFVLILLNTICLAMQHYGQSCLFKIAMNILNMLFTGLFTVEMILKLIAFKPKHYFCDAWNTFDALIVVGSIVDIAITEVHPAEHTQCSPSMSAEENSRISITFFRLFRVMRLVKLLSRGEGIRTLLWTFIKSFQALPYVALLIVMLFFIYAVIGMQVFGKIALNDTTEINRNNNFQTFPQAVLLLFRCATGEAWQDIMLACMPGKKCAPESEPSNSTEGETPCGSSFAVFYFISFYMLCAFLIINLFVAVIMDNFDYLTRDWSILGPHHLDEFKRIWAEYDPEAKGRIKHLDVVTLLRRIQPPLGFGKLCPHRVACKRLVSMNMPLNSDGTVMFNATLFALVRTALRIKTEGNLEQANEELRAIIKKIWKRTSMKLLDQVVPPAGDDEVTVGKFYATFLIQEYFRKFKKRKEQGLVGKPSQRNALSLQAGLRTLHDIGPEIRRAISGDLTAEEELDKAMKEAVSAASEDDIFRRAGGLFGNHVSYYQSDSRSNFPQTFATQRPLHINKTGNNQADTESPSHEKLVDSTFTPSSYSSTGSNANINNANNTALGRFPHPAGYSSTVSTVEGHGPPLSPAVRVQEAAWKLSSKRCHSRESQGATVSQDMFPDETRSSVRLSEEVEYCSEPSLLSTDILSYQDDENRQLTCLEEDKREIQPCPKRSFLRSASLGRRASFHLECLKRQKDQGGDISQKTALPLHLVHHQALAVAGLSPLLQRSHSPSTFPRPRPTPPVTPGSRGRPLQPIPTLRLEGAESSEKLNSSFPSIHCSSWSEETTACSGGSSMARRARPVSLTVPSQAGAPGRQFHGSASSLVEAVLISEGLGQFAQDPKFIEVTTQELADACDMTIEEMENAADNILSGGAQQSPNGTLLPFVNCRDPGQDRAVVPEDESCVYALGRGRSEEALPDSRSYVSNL
T1 sequence (P54290 25-944 partner limits assumed, other chains not shown): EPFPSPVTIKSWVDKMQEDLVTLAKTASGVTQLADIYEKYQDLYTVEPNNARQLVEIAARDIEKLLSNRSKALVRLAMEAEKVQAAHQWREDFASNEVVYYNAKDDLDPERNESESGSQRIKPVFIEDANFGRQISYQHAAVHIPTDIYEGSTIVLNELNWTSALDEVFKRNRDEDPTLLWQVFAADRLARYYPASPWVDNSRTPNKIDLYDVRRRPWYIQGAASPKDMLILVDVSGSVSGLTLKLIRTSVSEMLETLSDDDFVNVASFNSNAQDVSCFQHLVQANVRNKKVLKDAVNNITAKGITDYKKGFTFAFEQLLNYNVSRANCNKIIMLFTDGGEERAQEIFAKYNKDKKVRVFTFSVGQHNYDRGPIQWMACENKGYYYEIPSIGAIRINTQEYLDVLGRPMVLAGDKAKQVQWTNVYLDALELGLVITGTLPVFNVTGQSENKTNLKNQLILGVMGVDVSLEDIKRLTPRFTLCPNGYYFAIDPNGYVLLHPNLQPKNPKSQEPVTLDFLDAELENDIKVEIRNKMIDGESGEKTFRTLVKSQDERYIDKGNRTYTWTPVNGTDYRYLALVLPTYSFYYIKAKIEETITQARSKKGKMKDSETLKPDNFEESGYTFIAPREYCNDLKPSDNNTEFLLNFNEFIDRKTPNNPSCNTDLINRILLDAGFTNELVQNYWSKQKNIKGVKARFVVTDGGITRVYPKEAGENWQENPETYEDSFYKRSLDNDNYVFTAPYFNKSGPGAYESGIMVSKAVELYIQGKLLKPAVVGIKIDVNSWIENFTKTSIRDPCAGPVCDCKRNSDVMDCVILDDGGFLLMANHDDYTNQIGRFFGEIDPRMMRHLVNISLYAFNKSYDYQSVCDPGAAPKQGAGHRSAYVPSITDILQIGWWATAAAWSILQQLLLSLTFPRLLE
T1 sequence (P54290 945-1091 partner limits assumed, other chains not shown): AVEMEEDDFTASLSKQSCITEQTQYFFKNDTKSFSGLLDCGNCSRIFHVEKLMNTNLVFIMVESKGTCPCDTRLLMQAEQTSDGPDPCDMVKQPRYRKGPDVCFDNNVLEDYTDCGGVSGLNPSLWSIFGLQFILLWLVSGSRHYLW

Structure (SMILES)	IC50 (alpha1-adrenoceptor) [nM]	IC50 (Ca^2+ channel) [nM]	EC50 (guinea pig left atria) [nM]	Emax (guinea pig left atria) [%]
COC(=O)C1=C(C)NC(C)=C([N+](=O)[O-])C1c1ccoc1CCCCCN1CCN(c2ccccc2OC)CC1 (stereo not drawn) [Example 1, 1,4-Dihydro-4-(2-{5-[4-(2-methoxyphenyl)-1-piperazinyl]pentyl}-3-furanyl)-2,6-dimethyl-5-nitro-3-pyridinecarboxylic acid, methyl ester]	130	600	5000	188
COC(=O)C1=C(C)NC(C)=C([N+](=O)[O-])C1c1ccoc1CCCCCN1CCN(C(=O)c2ccco2)CC1 (stereo not drawn) [Example 2]	1900	1500	96000	144
COC(=O)C1=C(C)NC(C)=C([N+](=O)[O-])C1c1ccccc1S(=O)(=O)CCCCN1CCN(c2ccccc2OC)CC1 (stereo not drawn) [Example 3]	63	240	1000	89
COC(=O)C1=C(C)NC(C)=C([N+](=O)[O-])C1c1ccccc1[S+]([O-])CCCCN1CCN(c2ccccc2OC)CC1 (stereo not drawn) [Example 4]	20	890		43
COC(=O)C1=C(C)NC(C)=C([N+](=O)[O-])C1c1ccccc1OCCCCCN1CCN(C(=O)c2ccco2)CC1 (stereo not drawn) [Example 5]	2200	680	3000	269
COC(=O)C1=C(C)NC(C)=C([N+](=O)[O-])C1c1ccccc1OCCCCCN1CCC(c2ccccc2)CC1 (stereo not drawn) [Example 6]	900	360	2000	207
COC(=O)C1=C(C)NC(C)=C([N+](=O)[O-])C1c1ccccc1OCCCCCN1CCN(c2ccc(Cl)nn2)CC1 (stereo not drawn) [Example 7]	1900	650	12000	149
COC(=O)C1=C(C)NC(C)=C([N+](=O)[O-])C1c1ccccc1OCCCCCN1CCN(c2ccc(OC(C)C)nn2)CC1 (stereo not drawn) [Example 8]	15000	580	15000	113
COC(=O)C1=C(C)NC(C)=C([N+](=O)[O-])C1c1ccccc1OCCCCCN1CCN(C(=O)C2COc3ccccc3O2)CC1 (stereo not drawn) [Example 9]	5200	950	53000	62
COC(=O)C1=C(C)NC(C)=C([N+](=O)[O-])C1c1ccccc1OCCCCCN1CCN(c2cnccn2)CC1 (stereo not drawn) [Example 10]	7200	1200	2800	55
CCCOc1cc(N2CCN(CCCCCOc3ccccc3C3C(C(=O)OC)=C(C)NC(C)=C3[N+](=O)[O-])CC2)ncn1 (stereo not drawn) [Example 11]	5300	360	43000	68
COc1ccccc1N1CCN(CCCCOC(=O)C2=C(C)NC(C)=C([N+](=O)[O-])C2c2cccc3nonc23)CC1 (stereo not drawn) [Example 51, 4-(4-Benzofurazanyl)-1,4-dihydro-2,6-dimethyl-5-nitro-3-pyridinecarboxylicacid, {4-[4-(2-methoxyphenyl)-1-piperazinyl]butyl} ester]	120	110	11000	175
COc1ccccc1N1CCN(CCCCOC(=O)C2=C(C)NC(C)=C([N+](=O)[O-])C2c2cccnc2)CC1 (stereo not drawn) [Example 52]	52	3900		35
CC1=C(C(=O)OCCCCN2CCN(c3ncccn3)CC2)C(c2cccnc2)C([N+](=O)[O-])=C(C)N1 (stereo not drawn) [Example 53, 1,4-Dihydro-2,6-dimethyl-5-nitro-4-(3-pyridinyl)-3-pyridinecarboxylic acid: {4-[4-(2-pyrimidinyl)-1-piperazinyl]butyl} ester]	400	4400	25000	189
CC1=C(C(=O)OCCCCN2CCN(c3ncccn3)CC2)C(c2cccc3nonc23)C([N+](=O)[O-])=C(C)N1 (stereo not drawn) [Example 54]	820	290	> 100000	21
COc1ccccc1N1CCN(CCOC(=O)C2=C(C)NC(C)=C([N+](=O)[O-])C2c2ccoc2)CC1 (stereo not drawn) [Example 55, 4-(3-Furanyl)-1,4-dihydro-2,6-dimethyl-5-nitro-3-pyridinecarboxylic acid, {2-[4-(2-methoxyphenyl)-1-piperazinyl]ethyl} ester]	100	5100	1000	169

Continued, in another order:

IC50 (alpha1-adrenoceptor) [nM]	IC50 (Ca^2+ channel) [nM]	EC50 (guinea pig left atria) [nM]	Structure (SMILES)	Emax (guinea pig left atria) [%]
5200	4300	430	CC1=C(C(=O)OCCN2CCN(c3ncccn3)CC2)C(c2ccoc2)C([N+](=O)[O-])=C(C)N1 (stereo not drawn) [Example 56, 4-(3-Furanyl)-1,4-dihydro-2,6-dimethyl-5-nitro-3-pyridinecarboxylic acid, {2-[4-(2-pyrimidinyl)-1-piperazinyl]ethyl} ester]	171
33	1300	2300	COc1ccccc1N1CCN(CCCCOC(=O)C2=C(C)NC(C)=C([N+](=O)[O-])C2c2cccn2C)CC1 (stereo not drawn) [Example 57, 1,4-Dihydro-2,6-dimethyl-4-(1-methyl-1H-pyrrol-2-yl)-5-nitro-3-pyridinecarboxylic acid, {4-[4-(2-methoxyphenyl)1-piperazinyl]butyl} ester]	110
750	1800	840	CC1=C(C(=O)OCCCCN2CCN(c3ncccn3)CC2)C(c2cccn2C)C([N+](=O)[O-])=C(C)N1 (stereo not drawn) [Example 58, 1,4-Dihydro-2,6-dimethyl-4-(1-methyl-1H-pyrrol-2-yl)-5-nitro-3-pyridinecarboxylic acid, {4-[4-(2-pyrimidinyl)-1-piperazinyl]butyl} ester]	195
100	1500	2700	COc1ccccc1N1CCN(CCOC(=O)C2=C(C)NC(C)=C([N+](=O)[O-])C2c2ccco2)CC1 (stereo not drawn) [Example 59]	98
5900	2000	1600	CC1=C(C(=O)OCCN2CCN(c3ncccn3)CC2)C(c2ccco2)C([N+](=O)[O-])=C(C)N1 (stereo not drawn) [Example 60]	140
25	1300	1500	COc1ccccc1N1CCN(CCOC(=O)C2=C(C)NC(C)=C([N+](=O)[O-])C2c2cccnc2)CC1 (stereo not drawn) [Example 61]	164
> 1000	3700	> 100000	CC1=C(C(=O)OCCN2CCN(c3ncccn3)CC2)C(c2cccnc2)C([N+](=O)[O-])=C(C)N1 (stereo not drawn) [Example 62]	48
60	2200	12000	COc1ccccc1N1CCN(CCCCOC(=O)C2=C(C)NC(C)=C([N+](=O)[O-])C2c2cccs2)CC1 (stereo not drawn) [Example 63]	75
1200	1200	3400	CC1=C(C(=O)OCCCCN2CCN(c3ncccn3)CC2)C(c2cccs2)C([N+](=O)[O-])=C(C)N1 (stereo not drawn) [Example 64]	76
180	860	1000	COc1ccccc1N1CCN(CCOC(=O)C2=C(C)NC(C)=C([N+](=O)[O-])C2c2ccsc2)CC1 (stereo not drawn) [Example 65, 1,4-Dihydro-2,6-dimethyl-5-nitro-4-(3-thienyl)-3-pyridinecarboxylic acid, {2-[4-(2-methoxyphenyl)-1-piperazinyl]ethyl} ester]	225
6000	950	850	CC1=C(C(=O)OCCN2CCN(c3ncccn3)CC2)C(c2ccsc2)C([N+](=O)[O-])=C(C)N1 (stereo not drawn) [Example 66, 1,4-Dihydro-2,6-dimethyl-5-nitro-4-(3-thienyl)-3-pyridinecarboxylic acid, {2-[4-(2-pyrimidinyl)-1-piperazinyl]ethyl} ester]	210
63	3500	24000	COc1ccccc1N1CCN(CCCCOC(=O)C2=C(C)NC(C)=C([N+](=O)[O-])C2c2ccoc2)CC1 (stereo not drawn) [Example 67]	86
850	2700	3700	CC1=C(C(=O)OCCCCN2CCN(c3ncccn3)CC2)C(c2ccoc2)C([N+](=O)[O-])=C(C)N1 (stereo not drawn) [Example 68, 4-(3-Furanyl)-1,4-dihydro-2,6-dimethyl-5-nitro-3-pyridinecarboxylic acid, {4-[4-(2-pyrimidinyl)-1-piperazinyl]butyl} ester]	147
